From PMC9475448, “What a difference a methylene makes: replacing Glu with Asp or Aad in the Lys-urea-Glu pharmacophore of PSMA-targeting radioligands to reduce kidney and salivary gland uptake” (Theranostics, 2022)
Values joined by “and” are separate entries in the source; they are usually repeats but may differ in a detail not shown here. Identical values can stand only once.

Assays:
LNCaP tumor-bearing mice = experiment: Ex vivo biodistribution of 68Ga-labeled ligands in LNCaP tumor-bearing NSG mice
PSMA = target: T1, PSMA (Homo sapiens, UniProt Q04609); experiment: In vitro competition binding assay using LNCaP cells and [18F]DCFPyL as radioligand; details: displacement of [18F]DCFPyL from LNCaP cells, n = 3; read-out: PSMA binding affinity (Ki)
T1 construct: endogenous in cells; host or cells: LNCaP prostate cancer cells
T1 sequence (Q04609 whole entry): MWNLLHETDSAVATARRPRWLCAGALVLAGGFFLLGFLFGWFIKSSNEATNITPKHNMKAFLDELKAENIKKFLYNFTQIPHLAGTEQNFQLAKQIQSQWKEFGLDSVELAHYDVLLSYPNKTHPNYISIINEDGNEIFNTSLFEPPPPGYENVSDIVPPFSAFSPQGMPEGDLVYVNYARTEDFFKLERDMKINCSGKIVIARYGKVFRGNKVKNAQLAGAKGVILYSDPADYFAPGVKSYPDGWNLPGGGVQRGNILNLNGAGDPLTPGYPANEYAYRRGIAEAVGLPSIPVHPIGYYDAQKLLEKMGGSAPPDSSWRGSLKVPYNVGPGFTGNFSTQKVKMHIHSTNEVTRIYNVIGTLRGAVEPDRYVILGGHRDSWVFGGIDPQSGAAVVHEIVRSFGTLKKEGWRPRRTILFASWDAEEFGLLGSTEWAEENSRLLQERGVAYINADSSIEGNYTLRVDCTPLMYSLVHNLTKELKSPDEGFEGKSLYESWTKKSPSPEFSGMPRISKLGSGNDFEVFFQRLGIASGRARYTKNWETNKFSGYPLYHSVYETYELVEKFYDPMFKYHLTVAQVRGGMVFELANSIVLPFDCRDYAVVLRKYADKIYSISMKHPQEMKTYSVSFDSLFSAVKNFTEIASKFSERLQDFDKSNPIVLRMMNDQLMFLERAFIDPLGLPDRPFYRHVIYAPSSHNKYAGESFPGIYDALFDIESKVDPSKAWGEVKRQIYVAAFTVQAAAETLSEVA
Procedure: The binding assays were conducted following previously published procedures using LNCaP cells and [^18F]DCFPyL as the radioligand [17]-[19]. Briefly, LNCaP cells (400,000/well) were plated onto a 24-well poly-D-lysine coated plate for 48 h. Growth media was removed and replaced with HEPES buffered saline (50 mM HEPES, pH 7.5, 0.9% sodium chloride) and the cells were incubated for 1 h at 37 °C. [^18F]DCFPyL (0.1 nM) was added to each well (in triplicate) containing various concentrations (0.5 mM - 0.05 nM) of tested nonradioactive Ga-complexed compounds. Non-specific binding was determined in the presence of 10 µM non-radiolabeled DCFPyL. The assay mixtures were further incubated for 1 h at 37 °C with gentle agitation. Then, the buffer and radioligand were removed, and cells were washed twice with cold HEPES buffered saline. To harvest the cells, 400 µL of 0.25 % trypsin solution was added to each well. Radioactivity was measured on a PerkinElmer (Waltham, MA) Wizard2 2480 automatic gamma counter. Data analyses of Ki were performed using the nonlinear regression algorithm of GraphPad (San Diego, CA) Prism 7 software.

[1] = 1 h post-injection, listed as [68Ga]Ga-HTK03189A
[2] = 1 h blocked, co-injected with DCFPyL (0.5 mg)
[3] = 1 h post-injection, listed as [68Ga]Ga-HTK03149
[4] = co-injection of DCFPyL (0.5 mg), 1 h post-injection

O=C([O-])CN1CCN(CC(=O)[O-])CCN(CC(=O)NCC2CCC(C(=O)NC(Cc3c4ccccc4cc4ccccc34)C(=O)NCCCCC(NC(=O)NC(CCCCC(=O)O)C(=O)O)C(=O)O)CC2)CCN(CC(=O)[O-])CC1.[68Ga+3] (single isomer, unassigned) [[^68Ga]Ga-HTK03189A]
Higher tumor uptake than [68Ga]Ga-HTK03189B (LNCaP tumor-bearing mice; 1 h post-injection): ~ 2 fold | Adrenal glands uptake (LNCaP tumor-bearing mice; [1]): 0.35 ± 0.06 %IA/g | Blood uptake (LNCaP tumor-bearing mice; [1]): 0.89 ± 0.22 %IA/g | Blood:Salivary gland uptake ratio (LNCaP tumor-bearing mice; [1]): 4.39 ± 0.44 | Bone uptake (LNCaP tumor-bearing mice; [1]): 0.12 ± 0.03 %IA/g | Brain uptake (LNCaP tumor-bearing mice; [1]): 0.02 ± 0.00 %IA/g | Fat uptake (LNCaP tumor-bearing mice; [1]): 0.18 ± 0.11 %IA/g | Heart uptake (LNCaP tumor-bearing mice; [1]): 0.24 ± 0.06 %IA/g | Intestines uptake (LNCaP tumor-bearing mice; [1]): 0.31 ± 0.18 %IA/g | Kidneys uptake (LNCaP tumor-bearing mice; [1]): 2.65 ± 0.69 %IA/g | Lacrimal glands uptake (LNCaP tumor-bearing mice; [1]): 0.18 ± 0.18 %IA/g | Liver uptake (LNCaP tumor-bearing mice; [1]): 0.34 ± 0.15 %IA/g | Lungs uptake (LNCaP tumor-bearing mice; [1]): 0.68 ± 0.12 %IA/g | Muscle uptake (LNCaP tumor-bearing mice; [1]): 0.14 ± 0.04 %IA/g | Pancreas uptake (LNCaP tumor-bearing mice; [1]): 0.15 ± 0.04 %IA/g | Salivary glands uptake (LNCaP tumor-bearing mice; [1]): 0.20 ± 0.04 %IA/g | Spleen uptake (LNCaP tumor-bearing mice; [1]): 0.21 ± 0.10 %IA/g | Stomach uptake (LNCaP tumor-bearing mice; [1]): 0.11 ± 0.06 %IA/g | Testes uptake (LNCaP tumor-bearing mice; [1]): 0.23 ± 0.11 %IA/g | Thyroid uptake (LNCaP tumor-bearing mice; [1]): 0.25 ± 0.05 %IA/g | Tumor uptake (LNCaP tumor-bearing mice; [1]): 2.10 ± 0.28 %IA/g | Tumor:Blood uptake ratio (LNCaP tumor-bearing mice; [1]): 2.41 ± 0.29 | Tumor:Kidney uptake ratio (LNCaP tumor-bearing mice; [1]): 0.83 ± 0.21 | Tumor:Muscle uptake ratio (LNCaP tumor-bearing mice; [1]): 16.5 ± 4.08 | Tumor:Salivary gland uptake ratio (LNCaP tumor-bearing mice; [1]): 10.5 ± 1.07 | Tumor uptake (LNCaP tumor-bearing mice; 1 h post-injection, listed as [^68Ga]Ga-HTK0189A): 2.10±0.28 %IA/g

O=C([O-])CN1CCN(CC(=O)[O-])CCN(CC(=O)NCC2CCC(C(=O)NC(Cc3c4ccccc4cc4ccccc34)C(=O)NCCCCC(NC(=O)NC(CCCC(=O)O)C(=O)O)C(=O)O)CC2)CCN(CC(=O)[O-])CC1.[68Ga+3] (stereo not shown) [[^68Ga]Ga-HTK03149]
Adrenal glands uptake (LNCaP tumor-bearing mice; [2]): 0.22 ± 0.03 %IA/g | Blood uptake (LNCaP tumor-bearing mice; [2]): 0.67 ± 0.04 %IA/g | Blood:Salivary gland uptake ratio (LNCaP tumor-bearing mice; [2]): 4.80 ± 0.54 | Bone uptake (LNCaP tumor-bearing mice; [2]): 0.07 ± 0.01 %IA/g | Brain uptake (LNCaP tumor-bearing mice; [2]): 0.02 ± 0.00 %IA/g | Fat uptake (LNCaP tumor-bearing mice; [2]): 0.08 ± 0.01 %IA/g | Heart uptake (LNCaP tumor-bearing mice; [2]): 0.19 ± 0.01 %IA/g | Intestines uptake (LNCaP tumor-bearing mice; [2]): 0.21 ± 0.04 %IA/g | Kidneys uptake (LNCaP tumor-bearing mice; [2]): 1.93 ± 0.39 %IA/g | Lacrimal glands uptake (LNCaP tumor-bearing mice; [2]): 0.14 ± 0.08 %IA/g | Liver uptake (LNCaP tumor-bearing mice; [2]): 0.22 ± 0.03 %IA/g | Lungs uptake (LNCaP tumor-bearing mice; [2]): 0.49 ± 0.03 %IA/g | Muscle uptake (LNCaP tumor-bearing mice; [2]): 0.08 ± 0.01 %IA/g | Pancreas uptake (LNCaP tumor-bearing mice; [2]): 0.12 ± 0.01 %IA/g | Salivary glands uptake (LNCaP tumor-bearing mice; [2]): 0.14 ± 0.01 %IA/g | Spleen uptake (LNCaP tumor-bearing mice; [2]): 0.15 ± 0.04 %IA/g | Stomach uptake (LNCaP tumor-bearing mice; [2]): 0.04 ± 0.00 %IA/g | Testes uptake (LNCaP tumor-bearing mice; [2]): 0.19 ± 0.02 %IA/g | Thyroid uptake (LNCaP tumor-bearing mice; [2]): 0.18 ± 0.01 %IA/g | Tumor uptake (LNCaP tumor-bearing mice; [2]): 0.77 ± 0.06 %IA/g | Tumor:Blood uptake ratio (LNCaP tumor-bearing mice; [2]): 1.16 ± 0.13 | Tumor:Kidney uptake ratio (LNCaP tumor-bearing mice; [2]): 0.41 ± 0.09 | Tumor:Muscle uptake ratio (LNCaP tumor-bearing mice; [2]): 7.18 ± 3.58 | Tumor:Salivary gland uptake ratio (LNCaP tumor-bearing mice; [2]): 5.53 ± 0.39 | Adrenal glands uptake (LNCaP tumor-bearing mice; 1 h post-injection): 0.33 ± 0.11 %IA/g | Blood uptake (LNCaP tumor-bearing mice; 1 h post-injection): 0.70 ± 0.17 %IA/g | Blood:Salivary gland uptake ratio (LNCaP tumor-bearing mice; 1 h post-injection): 3.21±0.64 | Bone uptake (LNCaP tumor-bearing mice; 1 h post-injection): 0.11 ± 0.04 %IA/g | Brain uptake (LNCaP tumor-bearing mice; 1 h post-injection): 0.02 ± 0.00 %IA/g | Fat uptake (LNCaP tumor-bearing mice; 1 h post-injection): 0.17 ± 0.15 %IA/g | Heart uptake (LNCaP tumor-bearing mice; 1 h post-injection): 0.21 ± 0.03 %IA/g | Intestines uptake (LNCaP tumor-bearing mice; 1 h post-injection): 0.24 ± 0.05 %IA/g | Kidneys uptake (LNCaP tumor-bearing mice; 1 h post-injection): 4.15±1.46 %IA/g | Lacrimal glands uptake (LNCaP tumor-bearing mice; 1 h post-injection): 0.15 ± 0.09 %IA/g | Liver uptake (LNCaP tumor-bearing mice; 1 h post-injection): 0.25 ± 0.06 %IA/g | Lungs uptake (LNCaP tumor-bearing mice; 1 h post-injection): 0.53 ± 0.09 %IA/g | Muscle uptake (LNCaP tumor-bearing mice; 1 h post-injection): 0.11 ± 0.04 %IA/g | Pancreas uptake (LNCaP tumor-bearing mice; 1 h post-injection): 0.13 ± 0.02 %IA/g | Salivary glands uptake (LNCaP tumor-bearing mice; 1 h post-injection): 0.22±0.06 %IA/g | Spleen uptake (LNCaP tumor-bearing mice; 1 h post-injection): 0.27 ± 0.05 %IA/g | Stomach uptake (LNCaP tumor-bearing mice; 1 h post-injection): 0.07 ± 0.01 %IA/g | Testes uptake (LNCaP tumor-bearing mice; 1 h post-injection): 0.23 ± 0.13 %IA/g | Thyroid uptake (LNCaP tumor-bearing mice; 1 h post-injection): 0.20 ± 0.05 %IA/g | Tumor uptake (LNCaP tumor-bearing mice; 1 h post-injection): 19.1±6.37 %IA/g | Tumor:Blood uptake ratio (LNCaP tumor-bearing mice; 1 h post-injection): 29.5±15.8 | Tumor:Kidney uptake ratio (LNCaP tumor-bearing mice; 1 h post-injection): 5.44±3.88 and > 5.0 | Tumor:Muscle uptake ratio (LNCaP tumor-bearing mice; 1 h post-injection): 185±79.6 | Tumor:Salivary gland uptake ratio (LNCaP tumor-bearing mice; 1 h post-injection): 97.3±59.2 | Kidneys uptake (LNCaP tumor-bearing mice; [3]): 4.15 ± 1.46 %IA/g | Salivary glands uptake (LNCaP tumor-bearing mice; [3]): 0.22 ± 0.06 %IA/g | Tumor uptake (LNCaP tumor-bearing mice; [3]): 19.1 ± 6.37 %IA/g | Reduction of average uptake in LNCaP tumor xenografts by blocking (LNCaP tumor-bearing mice; [4]): 96% | Reduction of average uptake in kidneys by blocking (LNCaP tumor-bearing mice; [4]): 53% | Reduction of average uptake in salivary glands by blocking (LNCaP tumor-bearing mice; [4]): 36%

O=C([O-])CN1CCN(CC(=O)[O-])CCN(CC(=O)NCC2CCC(C(=O)NC(Cc3c4ccccc4cc4ccccc34)C(=O)NCCCCC(NC(=O)NC(CCCCC(=O)O)C(=O)O)C(=O)O)CC2)CCN(CC(=O)[O-])CC1.[Ga+3] (single isomer, unassigned) [Ga-HTK03189A]
Ki (PSMA): 550 ± 35.7 nM

O=C([O-])CN1CCN(CC(=O)[O-])CCN(CC(=O)NCC2CCC(C(=O)NC(Cc3c4ccccc4cc4ccccc34)C(=O)NCCCCC(NC(=O)NC(CC(=O)O)C(=O)O)C(=O)O)CC2)CCN(CC(=O)[O-])CC1.[Ga+3] (stereo not shown) [Ga-HTK03161]
Ki (PSMA): 3.88 ± 0.66 nM
